Measurements published in publication PMC3722296 (PLoS ONE, 2013).
Entries after “also recorded” stand apart in the source; their conditions may differ. Where no end group is shown, it is not given here.

Key:
[1] = system: S. aureus S1; experiment: Antibiotic susceptibility, agar disc diffusion; format: cell-based, Staphylococcus aureus; conditions: agar disc diffusion method
Procedure: (§1) S1 was isolated from the blood of a patient and S2 was isolated from the sputum of a neonate. After isolation and identification, S. aureus strains were assessed for their susceptibility to various antibiotics, using the agar disc diffusion method. S1 was found Methicillin resistant (MRSA) and is also resistant to Amoxicillin, Oxacillin, Amikacin, Tobramycin, Fluoroquinolones, Erythromycin and Clindamycin. However, it was susceptible to Gentamicin, Synercid, Co-trimoxazole, Rifampicin, Fusidic acid, Vancomycin, Teicoplanin and Linezolid.

[2] = system: staphylococcal proteases released into bacterial supernatants; conditions: 37°C, 24 h; for degradation by four strain supernatants in presence of protease inhibitors: protease inhibitor cocktail + 100 µM 1–10 phenanthroline; for degradation by culture supernatant of S2 / degradation by culture supernatants S49775, S25923 and S1: no protease inhibitors, RP-HPLC 214 nm, sequencing, MALDI-TOF, triplicate wells
Procedure: S. aureus strains were precultured and plated on the agar plates and cultivated for 24 h at 37°C. After incubation, one colony per isolate was transferred to 10 mL of the MHB medium and incubated at 37°C for about 30 h to late stationary growth phase. After incubation, cultures were centrifuged at 10,000×g for 15 min and supernatants were filtered using a 0.22 µM Millex®-GV (Millipore, Carrigtwohill, Ireland) to eliminate bacteria. The supernatants were stored at −20°C until further use. In order to check sterility, 1 mL of each supernatant was incubated at 37°C for 48 h. Absence of a colony was interpreted as lack of viable bacteria.
(§4) Triplicate wells were treated for each concentration of peptide. In parallel, several controls were performed: with and without peptides in MHB medium.
For which, protease inhibitor cocktail (complete protease inhibitors except metalloproteases) (Roche Diagnostic GmbH, Mannheim, Germany) supplemented with 100 µM of 1–10 phenanthroline (metalloprotease inhibitor) (Sigma Aldrich GmbH, Steinheim, Germany) was added to bacterial supernatants before the addition of synthetic peptides. The whole suspension was incubated at 37°C for 24 h prior to being analyzed by RP-HPLC.
(§5) The synthetic peptides treated with bacterial supernatants and different controls including culture medium, bacterial supernatants, and synthetic peptides were separated using a Dionex HPLC system (Ultimate 3000; Sunnyvale, CA USA) on a Nucleosil reverse-phase 300–5C18-column (4×250 mm; particle size, 5 µm; porosity, 300 Å) (Macherey Nagel Hoerdt, France). Absorbance was monitored at 214 nm, and the solvent system consisted of 0.1% (v/v) TFA in water (solvent A) and 0.09% (v/v) TFA in 70% (v/v) acetonitrile-water (solvent B). Elution was performed at a flow rate of 700 µL/min, with the gradient as indicated on chromatograms. Fractions were collected with one min time interval. They were subsequently concentrated by evaporation by using a speed-vac, however not allowing them to dry completely.
The N-terminal sequence of purified peptides was determined by automatic Edman degradation analysis on a Procise microsequencer (Applied Biosystems, Courtaboeuf, France). Samples purified by HPLC were loaded on polybrene-treated glass-fiber filters. Phenylthiohydantoin-amino acids (Pth-Xaa) were identified by chromatography on a C18 column (PTH C-18, 2.1 mm×200 mm).
Mass determination was carried out on a Brucker BIFLEX™ Matrix-Assisted Laser Desorption Ionization – Time-Of-Flight mass spectrometer (MALDI-TOF) (equipped with the high resolution optics (SCOUT™) with X–Y multi-sample probe, a gridless reflector and with the HIMAS™ linear detector). With a maximum accelerating potential of 30 kV, the system can be operated either in linear or the reflective mode. Ionization was carried out with a 337-nm beam from a nitrogen laser with a repetition rate of 3 Hz. The output signal from the detector was digitized at a sampling rate of 250 MHz in linear mode and 500 MHz in reflector mode using a 1 GHz digital oscilloscope (Lecroy model). Brucker supplied software hosted in Sun sparcworkstation was used for data processing and the instrumental control. […] These studies were realized using the matrix α-cyano-4-hydroxycinnamic acid, obtained from Sigma, and prepared as a saturated solution in acetone. A total of 1–2 µl of the sample matrix aliquot solution was deposited on the probe and dried by ambient air. A thin layer matrix crystal was obtained after rapid spreading and evaporation. […] A micromolar analyte solution was applied to the matrix and allowed to dry under moderate vacuum. The whole preparation was washed by 1 μl of trifluoroacetic acid (0.5%) aqueous solution. This cleaning procedure helps remove remaining alkaline cations and often leads to an increase in sensitivity.

[3] = system: S. aureus; experiment: Antibacterial activity against S. aureus, (strains together or not specified); format: cell-based, Staphylococcus aureus
Procedure: (§2) Different S. aureus strains described above were first pre-cultured aerobically at 37°C for 20 h in a Mueller-Hinton-Broth (MHB) medium, pH 7.3 (Difco Laboratories, Detroit, MI). Bacteria were suspended at absorbance of 0.001 at 620 nm in the MHB medium. […] Ten µl final volumes (10–200 µg/mL) of synthetic peptides (LL-37, bCAT, hCAT and bCTL) were incubated in microtitration plates with 90 µl of a mid-logarithmic phase culture of bacteria, with a starting absorbance of 0.001 at 620 nm. In the initial inoculi, bacteria were quantified by the agar plate spreading method which was 5×10^5 colony forming units (CFU)/mL. Tetracycline (10 mg/L) and Cefotaxime (0.1 mg/L) were used as positive controls. Microbial growth was assessed by the increase of absorbance after 24 h incubation at 37°C., [29] The A620 nm value of control cultures growing in the absence of peptide and antibiotics was defined as 100% growth. A620 nm zero with the antibiotics (Tetracycline and Cefotaxime) was taken as 100% inhibition. Absence of bacterial growth was verified by agar plate spreading. Each assay was performed in triplicates.

[4] = system: S. aureus S1 (MRSA); format: cell-based, Staphylococcus aureus; conditions: S1, 24 h, pH 7.3
Procedure: as §1, §2
(§3) The MIC values (µg/mL) are reported as means of three independent experiments. To determine significance, between different peptides (rows) and bacterial strains (columns), one way ANOVA was used. Overall significance and correlation was evaluated by 4×4 factorial ANOVA for independent samples. Significance was accepted at p≤0.05.

[5] = system: S. aureus S2 (MSSA); format: cell-based, Staphylococcus aureus; conditions: S2, 24 h, pH 7.3
Procedure: as §1, §2, §3

[6] = system: S. aureus ATCC49775; format: cell-based, Staphylococcus aureus; conditions: ATCC49775, 24 h, pH 7.3
Procedure: as §2, §3

[7] = system: S. aureus ATCC25923; format: cell-based, Staphylococcus aureus; conditions: ATCC25923, 24 h, pH 7.3
Procedure: as §2, §3

[8] = system: human erythrocytes; conditions: cited from earlier work
Excerpt: Due to continuous resistance development by S. aureus, the interest for natural AMPs is increasing because some of them display potent antibacterial activity. However, secondary reactions such as hemolytic activity, [36] limit their use as systemic anti-infective drugs. Until recently, no such reaction was reported for the antimicrobial Cgs-derived peptides in the literature. Several CgA-derived peptides were previously characterized to display antimicrobial properties, [9] however, data concerning killing of S. aureus is not reported. CAT was previously reported, to be active against diff ...

[9] = S. aureus ATCC49775 culture supernatant with protease inhibitors (Pi+S49775); conditions: S. aureus ATCC49775, 37°C, up to 24 h
[10] = S. aureus ATCC25923 culture supernatant (S25923), MHB medium, filtered; conditions: S. aureus ATCC25923, 37°C, up to 24 h
[11] = S. aureus S1 culture supernatant with protease inhibitors (Pi+S1); conditions: S. aureus S1 (MRSA), 37°C, up to 24 h
[12] = S. aureus S1 (MRSA) culture supernatant, MHB medium, filtered; conditions: 37°C, up to 24 h
[13] = S. aureus ATCC49775 culture supernatant (S49775), MHB medium, filtered; conditions: S. aureus ATCC49775, 37°C, up to 24 h
[14] = MHB medium; conditions: 37°C, up to 24 h
[15] = S. aureus ATCC25923 culture supernatant with protease inhibitors (Pi+S25923); conditions: S. aureus ATCC25923, 37°C, up to 24 h
[16] = S. aureus S2 (MSSA) culture supernatant, MHB medium, filtered; conditions: 37°C, up to 24 h
[17] = S. aureus S2 culture supernatant with protease inhibitors (Pi+S2); conditions: S. aureus S2 (MSSA), 37°C, up to 24 h
[18] = MHB medium without supernatant, 37°C, 24 h; RP-HPLC
Procedure: as §4, §5

[19] = system: S. aureus S2; experiment: Antibiotic susceptibility, agar disc diffusion; format: cell-based, Staphylococcus aureus; conditions: agar disc diffusion method
Procedure: as §1

Compound: CO[C@H]1/C=C/O[C@@]2(C)Oc3c(C)c(O)c4c(O)c(c(/C=N/N5CCN(C)CC5)c(O)c4c3C2=O)NC(=O)/C(C)=C\C=C\[C@H](C)[C@H](O)[C@@H](C)[C@@H](O)[C@@H](C)[C@H](OC(C)=O)[C@@H]1C [Rifampicin]
- susceptibility of strain S1 [1]: susceptible

Compound: RSMRLSFRARGYGFR [bCTL, cateslytin]
- degradation by any of the staphylococcal strains tested (four supernatants) ([2]; ATCC49775, ATCC25923, S1, S2 supernatants, peptide at MIC concentration, RP-HPLC): not degraded
- degradation by four strain supernatants in presence of protease inhibitors ([2]; RP-HPLC): remains unaffected
- MIC value against different strains of S. aureus ([3]; across ATCC49775, ATCC25923, S1, S2): 37 to 45 µg/mL
- MIC [4]: 37 µg/mL
- MIC [5]: 45 µg/mL
- MIC [6]: 37 µg/mL
- MIC [7]: 40 µg/mL
- hemolytic activity [8]: not hemolytic

Compound: CC[C@H]1OC(=O)[C@H](C)[C@@H](O[C@H]2C[C@@](C)(OC)[C@@H](O)[C@H](C)O2)[C@H](C)[C@@H](O[C@@H]2O[C@H](C)C[C@H](N(C)C)[C@H]2O)[C@](C)(O)C[C@@H](C)C(=O)[C@H](C)[C@@H](O)[C@]1(C)O [Erythromycin]
- susceptibility of strain S1 [1]: resistant

Compound: FLE-RSMRLSFRARG [shorter peptide lacking the C-terminal end (YGFR) of CTL]
- concentration at which antibacterial activities are displayed ([3]; data not shown): 200 µg/mL

Compound: Cc1onc(-c2ccccc2)c1C(=O)N[C@@H]1C(=O)N2[C@@H]1SC(C)(C)[C@@H]2C(=O)O [Oxacillin]
- susceptibility of strain S1 [1]: resistant

Compound: RSMRLSFRARGYGFRGPGLQL
- not cleaved [9]: not cleaved by any of the four strain supernatants tested in presence of protease inhibitors
- cleaved bond [10]: L348-S349
- not cleaved [11]: not cleaved by any of the four strain supernatants tested in presence of protease inhibitors
- cleaved bond [12]: L348-S349
- cleaved bond [13]: L348-S349
- not cleaved [14]: In MHB medium, bCAT was not processed
- not cleaved [15]: not cleaved by any of the four strain supernatants tested in presence of protease inhibitors
- cleaved bond [16]: S349-F350; also recorded: G356-F357
- not cleaved [17]: not cleaved by any of the four strain supernatants tested in presence of protease inhibitors

Compound: CNC(C)C1CCC(N)C(OC2C(N)CC(N)C(OC3OCC(C)(O)C(NC)C3O)C2O)O1 (centres unmarked) [Gentamicin]
- susceptibility of strain S1 [1]: susceptible

Compound: CC(=O)NC[C@H]1CN(c2ccc(N3CCOCC3)c(F)c2)C(=O)O1 [Linezolid]
- susceptibility of strain S1 [1]: susceptible

Compound: RSMRLSFRARGYGFRGPGLQL [bCAT, catestatin]
- degradation by culture supernatant of S2 ([2]; peptide at MIC concentration): largely cleaved
- degradation by culture supernatants S49775, S25923 and S1 ([2]; peptide at MIC concentration): processed
- degradation by four strain supernatants in presence of protease inhibitors ([2]; RP-HPLC): not cleaved
- MIC [4]: 100 µg/mL
- MIC [5]: 115 µg/mL
- processing in MHB medium [18]: not processed
- MIC [6]: 100 µg/mL
- MIC [7]: 100 µg/mL

Compound: CC(=O)O[C@H]1C[C@@]2(C)[C@@H](C[C@@H](O)[C@H]3[C@@]4(C)CC[C@@H](O)[C@@H](C)[C@@H]4CC[C@@]32C)/C1=C(\CCC=C(C)C)C(=O)O [Fusidic acid]
- susceptibility of strain S1 [1]: susceptible

Compound: Co-trimoxazole
- susceptibility of strain S1 [1]: susceptible

Compound: NC[C@H]1O[C@H](O[C@H]2[C@H](O)[C@@H](O[C@H]3O[C@H](CO)[C@@H](O)[C@H](N)[C@H]3O)[C@H](N)C[C@@H]2N)[C@H](N)C[C@@H]1O [Tobramycin]
- susceptibility of strain S1 [1]: resistant

Compound: CC1(C)S[C@@H]2[C@H](NC(=O)[C@H](N)c3ccc(O)cc3)C(=O)N2[C@H]1C(=O)O [Amoxicillin]
- susceptibility of strain S1 [1]: resistant

Compound: NCC[C@H](O)C(=O)N[C@@H]1C[C@H](N)[C@@H](O[C@H]2O[C@H](CN)[C@@H](O)[C@H](O)[C@H]2O)[C@H](O)[C@H]1O[C@H]1O[C@H](CO)[C@@H](O)[C@H](N)[C@H]1O [Amikacin]
- susceptibility of strain S1 [1]: resistant

Compound: COc1cccc(OC)c1C(=O)N[C@@H]1C(=O)N2[C@@H]1SC(C)(C)[C@@H]2C(=O)O [Methicillin]
- susceptibility of strain S2 [19]: susceptible
- susceptibility of strain S1 [1]: resistant

Compound: Teicoplanin
- susceptibility of strain S1 [1]: susceptible

Compound: SSMKLSFRARAYGFRGPGPQL [hCAT, catestatin]
- degradation by culture supernatant of S2 ([2]; peptide at MIC concentration): completely cleaved
- degradation by culture supernatants S49775, S25923 and S1 ([2]; peptide at MIC concentration): partially processed
- MIC [4]: 130 µg/mL
- MIC [5]: 150 µg/mL
- processing in MHB medium [18]: not cleaved
- MIC [6]: 125 µg/mL
- MIC [7]: 135 µg/mL

Compound: CCC[C@@H]1C[C@@H](C(=O)N[C@@H]([C@H]2O[C@H](SC)[C@H](O)[C@@H](O)[C@H]2O)[C@H](C)Cl)N(C)C1 [Clindamycin]
- susceptibility of strain S1 [1]: resistant

Compound: SSMKLSFRARGYGFRGPGPQL
- cleaved bond [10]: L356-S357
- cleaved bond [12]: L356-S357
- cleaved bond [13]: L356-S357
- not cleaved [14]: In presence of MHB medium, hCAT was not cleaved
- cleaved bond [16]: G364-F365; also recorded: S357-F358

Compound: CN[C@H](CC(C)C)C(=O)N[C@H]1C(=O)N[C@@H](CC(N)=O)C(=O)N[C@H]2C(=O)N[C@H]3C(=O)N[C@H](C(=O)N[C@H](C(=O)O)c4cc(O)cc(O)c4-c4cc3ccc4O)[C@H](O)c3ccc(c(Cl)c3)Oc3cc2cc(c3O[C@@H]2O[C@H](CO)[C@@H](O)[C@H](O)[C@H]2O[C@H]2C[C@](C)(N)[C@H](O)[C@H](C)O2)Oc2ccc(cc2Cl)[C@H]1O [Vancomycin]
- susceptibility of strain S1 [1]: susceptible

Compound: RSMRLSFRARGYGFR
- not cleaved [9]: remains unaffected by S. aureus supernatants with or without protease inhibitors
- not cleaved [10]: not degraded by any of the staphylococcal strains tested
- not cleaved [11]: remains unaffected by S. aureus supernatants with or without protease inhibitors
- not cleaved [12]: not degraded by any of the staphylococcal strains tested
- not cleaved [13]: not degraded by any of the staphylococcal strains tested
- not cleaved [15]: remains unaffected by S. aureus supernatants with or without protease inhibitors
- not cleaved [16]: not degraded by any of the staphylococcal strains tested
- not cleaved [17]: remains unaffected by S. aureus supernatants with or without protease inhibitors

Compound: FLE-RSMRLSFRARGYGFR [FLE-CTL, CTL derived peptide with a hydrophobic N-terminal end]
- antibacterial activity against S. aureus ([3]; at 400 µg/mL, recent experiments): inactive
